Measurements taken from paper PMC9748189 (Journal of Pain Research, 2022).
pIC50: −log10 of the molar value.

What was measured:
COX-1 = molecular target: T1, COX-1 (Ovis aries, UniProt P05979); test: recombinant COX-1 enzyme inhibition; type: biochemical
T1 sequence (P05979 25-600): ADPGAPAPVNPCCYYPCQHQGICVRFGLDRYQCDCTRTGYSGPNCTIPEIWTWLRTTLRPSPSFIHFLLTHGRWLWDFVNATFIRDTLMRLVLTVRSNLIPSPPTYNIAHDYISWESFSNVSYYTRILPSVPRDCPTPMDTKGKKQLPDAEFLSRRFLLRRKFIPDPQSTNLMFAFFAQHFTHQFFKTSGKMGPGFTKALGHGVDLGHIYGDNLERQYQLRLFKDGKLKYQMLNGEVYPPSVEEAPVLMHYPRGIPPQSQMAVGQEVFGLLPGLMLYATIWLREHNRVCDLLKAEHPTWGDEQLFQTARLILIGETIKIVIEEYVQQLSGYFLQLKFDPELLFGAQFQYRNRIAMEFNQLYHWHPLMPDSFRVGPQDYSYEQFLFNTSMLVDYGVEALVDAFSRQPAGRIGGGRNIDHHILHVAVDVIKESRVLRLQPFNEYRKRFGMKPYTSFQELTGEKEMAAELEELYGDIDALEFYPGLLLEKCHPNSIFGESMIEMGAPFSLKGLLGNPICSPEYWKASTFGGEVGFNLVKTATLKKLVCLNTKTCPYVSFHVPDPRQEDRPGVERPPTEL

COX-2 = molecular target: T2, COX-2 (Ovis aries, UniProt P79208); test: recombinant COX-2 enzyme inhibition; type: biochemical
T2 sequence (P79208 17-603): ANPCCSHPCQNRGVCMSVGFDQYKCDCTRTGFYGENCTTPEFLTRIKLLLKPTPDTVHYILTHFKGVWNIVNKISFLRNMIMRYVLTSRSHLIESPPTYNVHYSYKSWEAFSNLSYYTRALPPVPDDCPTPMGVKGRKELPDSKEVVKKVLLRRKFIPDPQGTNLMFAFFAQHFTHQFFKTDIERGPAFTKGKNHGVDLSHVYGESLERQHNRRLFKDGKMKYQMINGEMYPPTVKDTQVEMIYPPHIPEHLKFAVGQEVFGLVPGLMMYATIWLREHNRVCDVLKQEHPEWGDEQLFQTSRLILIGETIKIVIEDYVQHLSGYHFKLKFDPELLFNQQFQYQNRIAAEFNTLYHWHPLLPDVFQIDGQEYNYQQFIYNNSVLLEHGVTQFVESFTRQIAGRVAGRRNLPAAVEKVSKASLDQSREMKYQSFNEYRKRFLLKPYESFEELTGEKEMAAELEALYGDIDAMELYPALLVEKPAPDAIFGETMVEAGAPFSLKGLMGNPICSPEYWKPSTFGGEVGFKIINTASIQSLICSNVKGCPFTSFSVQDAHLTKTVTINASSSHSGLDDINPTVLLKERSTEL

Compound: CC(=O)Oc1ccc(NCCc2ccc(C(F)(F)F)cc2)cc1C(=O)O [flusalazine, 2-acetoxy-5-(2-4-(trifluoromethyl)-phenethylamino)-benzoic acid]
- pIC50 (COX-1): 4.79
- pIC50 (COX-2): 3.19
